Assay results from patent US11337971B2, “Dopamine D3 receptor selective antagonists/partial agonists and uses thereof” (THE UNITED STATES OF AMERICA, AS REPRESENTED BY THE …, priority 2018, dated 2022).
Entries after “also recorded” stand apart in the source; their conditions may differ.

How the values were obtained:
human D4R = human D4R (Homo sapiens (Human), UniProt P21917); experiment: Radioligand competition binding, [3H]N-methylspiperone, HEK293 membranes expressing human D4R; conditions: Table 1A; μM; read-out: D4R Ki
Chain of human D4R (P21917 whole entry): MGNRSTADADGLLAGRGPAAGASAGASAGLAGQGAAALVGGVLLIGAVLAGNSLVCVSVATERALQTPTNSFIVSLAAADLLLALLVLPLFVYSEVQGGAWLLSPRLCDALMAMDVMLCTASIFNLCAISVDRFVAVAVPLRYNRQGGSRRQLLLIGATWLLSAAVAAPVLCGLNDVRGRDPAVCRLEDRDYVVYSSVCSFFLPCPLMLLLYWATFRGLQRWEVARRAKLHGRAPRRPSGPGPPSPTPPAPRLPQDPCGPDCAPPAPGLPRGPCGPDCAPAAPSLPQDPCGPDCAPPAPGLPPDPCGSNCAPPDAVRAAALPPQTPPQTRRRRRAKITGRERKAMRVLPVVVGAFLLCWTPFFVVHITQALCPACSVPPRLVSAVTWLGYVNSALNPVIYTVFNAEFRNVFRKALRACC
Outline: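 HEK293 membranes with human D4R (20 μg protein) and 0.4 nM [3H]N-methylspiperone in EBSS with sodium metabisulfite, 1 h at room temperature, filtration read-out. Compounds 10 μM to 10 pM; nonspecific binding with 10 μM butaclamol. Ki by Cheng-Prusoff from IC50, at least three experiments.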

human dopamine D3R = human dopamine D3R (Homo sapiens (Human), UniProt P35462); experiment: D3R mitogenesis assay: stimulation or inhibition of quinpirole-stimulated mitogenesis in CHO cells; type: cell-based; conditions: Table 2a; inhibition of quinpirole-stimulated mitogenesis; read-out: Antagonist IC50 ± SEM
Chain of human dopamine D3R (P35462 whole entry): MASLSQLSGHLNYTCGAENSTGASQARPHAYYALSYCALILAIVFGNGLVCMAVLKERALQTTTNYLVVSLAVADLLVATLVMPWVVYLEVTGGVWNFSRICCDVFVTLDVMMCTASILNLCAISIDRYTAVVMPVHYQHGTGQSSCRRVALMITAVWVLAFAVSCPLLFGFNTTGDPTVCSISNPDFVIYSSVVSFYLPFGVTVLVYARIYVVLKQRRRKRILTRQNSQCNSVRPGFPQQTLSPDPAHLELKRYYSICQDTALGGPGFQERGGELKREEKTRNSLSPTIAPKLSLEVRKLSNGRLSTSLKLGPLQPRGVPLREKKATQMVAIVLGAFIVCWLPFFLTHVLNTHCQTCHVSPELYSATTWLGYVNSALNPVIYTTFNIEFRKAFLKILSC

Male Long-Evans rats = experiment: Hot plate test of oxycodone-induced antinociceptive response in rats; type: in vivo, rat
Experimental: Nociceptive tests were performed using a hot plate device (Model 39, IITC Life Science Inc., Woodland Hills, Calif., USA). The rat was put inside a transparent cage on the hot plate (52±0.2° C.). When thermal nociceptive signs such as licking, stomping the hind paw, or jumping from the plate appeared, the rat was immediately removed from the cage. […] The cut-off time for the test was 60 s to avoid tissue damage.
These experiments involved 8 groups of rats (n=8-9/group) in 2 series of repeated testing: 4 groups were used to test the effects of compound (±)-29 pretreatment on the time course of antinociception induced by oxycodone at a single dose, and another 4 groups were used to test the effects of compound (±)-29 pretreatment on the antinociception induced by various oxycodone doses. Each rat was first habituated to the testing environment for 1 h, followed by placement on the hot plate without treatment to obtain baseline response latencies. The groups in the time course test received baseline testing. Then, group 1 was pretreated with vehicle, and the other 3 groups were pretreated with a dose of compound (±)-29 (5, 15 or 25 mg/kg, i.p.). Fifteen min following the pretreatment, each rat was challenged with a saline injection (1 ml/kg) and, 30 min later, tested for the second time on the hot plate. On the next day, each group received the same pretreatment as on day 1, but challenged with oxycodone (2 mg/kg, i.p.), and each rat was then tested again at 30-, 60- and 120-min following oxycodone challenge. […] Data were calculated as % of maximum percentage effect (% MPE) using the formula: (treatment value−basal value)/(cutoff value−basal value)×100.
Methods: Compound (±)-29 was administered 15 minutes before saline or oxycodone challenge at 5 mg/kg, 15 mg/kg, and 25 mg/kg. […] The rat was then immediately removed from the hot plate and the time latency was recorded.

CCc1cc(Cl)c(OC)c(N2CCN(CC(O)CCNC(=O)c3cc4ccccc4[nH]3)CC2)c1 (racemic) [Compound 29, N-(4-(4-(3-chloro-5-ethyl-2-methoxyphenyl)piperazin-1-yl)-3-hydroxybutyl)-1H-indole-2-carboxamide]
Ki (human D4R): > 100 µM | IC50 (human dopamine D3R): 360 ± 100 nM | effect of pretreatment on oxycodone antinociception (% MPE), hot plate (Male Long-Evans rats; 5-25 mg/kg i.p. pretreatment, oxycodone 0.5-4 mg/kg, effect at 25 mg/kg): significant elevation of MPE %; also recorded: potentiated the antinociceptive effects of oxycodone; also recorded: produced a leftward shift in the dose-response curve of oxycodone; also recorded: significantly potentiated oxycodone's effect | thermal response 30 minutes following saline or oxycodone (2 mg/kg, i.p.) challenge (Male Long-Evans rats; Example 6, 5, 15, 25 mg/kg, 15 minutes before challenge): no significant effects on animal's thermal response
